1 compound from article PMC3989164, “Multi-Kinase Inhibitor C1 Triggers Mitotic Catastrophe of Glioma Stem Cells Mainly through MELK Kinase Inhibition” (PLoS ONE, 2014) can be followed below.

The assay concerns the target T1, maternal embryonic leucine-zipper kinase (MELK) (Homo sapiens, UniProt Q14680).
T1 construct: recombinant MELK protein
As to the kind of experiment: in vitro kinase assay with recombinant MELK, ten-dose curve. It counts as biochemical.

T1 sequence (Q14680 whole entry): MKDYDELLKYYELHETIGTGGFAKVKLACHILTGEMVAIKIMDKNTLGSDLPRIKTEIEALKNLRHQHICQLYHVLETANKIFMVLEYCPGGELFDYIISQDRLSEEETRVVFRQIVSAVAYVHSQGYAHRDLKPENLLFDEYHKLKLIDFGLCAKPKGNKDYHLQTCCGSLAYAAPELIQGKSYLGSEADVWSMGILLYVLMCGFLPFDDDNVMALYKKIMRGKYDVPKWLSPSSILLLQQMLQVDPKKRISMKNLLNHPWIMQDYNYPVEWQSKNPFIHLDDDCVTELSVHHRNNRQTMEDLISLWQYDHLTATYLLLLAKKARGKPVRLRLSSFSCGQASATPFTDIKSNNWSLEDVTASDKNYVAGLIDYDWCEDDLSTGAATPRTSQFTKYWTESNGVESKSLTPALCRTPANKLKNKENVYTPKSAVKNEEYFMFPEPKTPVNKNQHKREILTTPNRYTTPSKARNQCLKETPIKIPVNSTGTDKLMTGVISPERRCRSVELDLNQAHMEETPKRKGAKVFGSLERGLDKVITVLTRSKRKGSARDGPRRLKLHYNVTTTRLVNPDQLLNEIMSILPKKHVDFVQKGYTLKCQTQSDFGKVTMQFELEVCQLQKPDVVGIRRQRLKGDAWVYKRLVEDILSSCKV

Regarding `CCc1c[nH]c(=O)c2c1[nH]c1ccc3cc(OC)ccc3c12` [C1, Compound 1], the IC50 came to 42 nM.

Usually IC50 stands for the concentration at which inhibition is half-maximal.
